Measured values reported in PMC6162693, “Investigation into the Thermal Response and Pharmacological Activity of Substituted Schiff Bases on α-Amylase and α-Glucosidase” (Antioxidants, 2018).
≈ marks a conversion by molar mass, not a printed value. Read-outs that look alike come from different tables or passages of the source.

What was measured:
Enterococcus faecalis = assay: Broth microdilution antimicrobial assay, E. faecalis; format: cell-based; conditions: Enterococcus faecalis, read-out: MBC E. faecalis
Experimental: (§1) Exactly 1.5 mg of sodium;10-oxido-7-oxophenoxazin-10-ium-3-olate was dissolved in 100 mL of distilled water, vortexed, filtered, sterilised, and stored at 4 °C for a maximum of 14 days before being applied as a growth indicator. 1000 μM stock solution of Schiff bases (1–9) was prepared in DMSO.
(§2) Fungi (Aspergillus niger, Candida albicans), Gram-positive bacteria (Staphylococcus aureus, Enterococcus faecalis), and Gram-negative bacteria (Salmonella typhi, Escherichia coli).
(§3) Colonies from a 24 h culture agar plate were collected with a loop and transferred to a tube containing lysogeny broth (LB). The various suspensions were incubated at 37 °C and the size adjusted to 1.5 × 10^6 CFU/mL [27].
(§4) The antimicrobial activity of Schiff bases (1–9), was evaluated using 96-well broth microdilution method as described by de Rapper et al. (2013) and Akhalwaya et al. (2018) with slight modifications. Columns 1–11 was filled 50 µL LB, followed by the addition of 50 µL of Schiff base to column 1. Thereafter, 50 µL of Schiff bases from column 1 was transferred by multichannel pipette to columns 2–10, resulting in 50 µL Schiff bases per well. Column 11 contained 100 µL of diluted standardised inoculum, while Column 12 contained 100 µL of LB as a control to monitor sterility. Then, 50 µL of the microorganism suspension was then added to columns 1–10 and the control column 11. The plates were incubated at 37 °C for 24 h, followed by the addition of 30 µL of growth indicator solution and further incubated for 2 h for the observation of colour change. On completion of incubation, the columns with blue indicator colour were reported as the MIC (µM) values. The columns with a concentration higher than the MIC value were plated on nutrient agar to determine the minimum bactericidal and fungicidal concentrations.

H2O2-scavenging activity = conditions: absorbance at 230 nm; mean ± SD (n = 3)
Experimental: (§5) The antioxidant activities of Schiff bases (1–9) were determined by DPPH, ABTS^+, H2O2, ferric reducing power assays, and compared with 3,4,5-trihydroxybenzoic acid (10), 5-(1,2-dihydroxyethyl)-3,4-dihydroxyfuran-2(5H)-one (11), and 2-(3,4-dihydroxyphenyl)-3,5,7-trihydroxy-4H-chromen-4-one (12) (as controls).
According to the methods of Ruch et al., the H2O2 scavenging activity of compounds (1–12) was evaluated. To 100 µL aliquot of the test compounds was added 0.4 mL of 50 mM phosphate buffer followed by 0.6 mL of 2 mM H2O2 solution prepared in 50 mM phosphate buffer (pH 6.8). The absorbance of the mixture was measured at 230 nm, thereafter, the %H2O2 scavenging activity (Equation (4)) and IC50 (μM) of the compounds 1–12 was determined. All analyses were carried out in triplicate. (4) % H2O2 − scavenging activity = 100⌊(Abs. of H2O2 − Abs. of test compound)/(Abs. of H2O2)⌋

[1] = ABTS radical cation decolourisation assay; conditions: absorbance at 734 nm, 30 min; mean ± SD (n = 3)
Experimental: as §5
A mixture of ABTS (960.2 mg) and potassium persulphate (165.6 mg) was dissolved in 250 mL of distilled water to generate the blue-green ABTS^+ solution. The ABTS solution was stored away in the dark at ambient temperature for 24 h to generate sufficient ABTS radical cation (ABTS^+), then the absorbance was adjusted to 0.9547 with distilled water. Precisely 40 µL solution of the compounds were added to 3 mL ABTS^+ solution and incubated at 298 K for 30 min in the dark. Changes in concentration of ABTS^+ were measured at 734 nm on a spectrophotometer. The degree of ABTS^+ decolourisation was a template for evaluating the percentage proton-donating potential (%PDP) of the test compounds [24]; estimated from Equation (3). The IC50 (μM) of the compounds were determined by linear regression analysis, and all analyses were carried out in triplicate. (3) % PDP = 100⌊(Abs. of ABTS ^+ − Abs. of test compound)/(Abs. of ABTS^+)⌋

α-amylase = assay: α-Amylase inhibitory activity; format: biochemical; conditions: Means ×10^2 ± SD from at least three experiments
Experimental: The α-amylase inhibitory activity of Schiff bases (1–9) was evaluated by the method reported by Xiao et al. with slight modifications. Substrate solution is prepared by dissolving 1.0 g of starch in 50 mL of 0.4 M NaOH and heated at 100 °C for 5 min. The substrate solution was adjusted to a neutral pH by the addition of 0.1 M HCl, cooled on crushed ice and made to 100 mL in a standard volumetric flask with distilled water. […] Using a microplate, 40 μL substrate and 20 μL Schiff base solution were mixed, then preincubated at 37 °C for 3 min. Thereafter, 20 μL of 50 μg/mL α-amylase solution was dispensed into each well, and further incubated for 15 min. The reaction was terminated by the addition of 80 μL HCl (0.1 M); followed by 200 μL of 1 mM iodine solution, and the absorbances measured at 650 nm. Inhibitory activity was calculated from Equation (5):(5) α − amylase inhibition (%) = (A2 − A1/A4 − A3)100 where A1 is the absorbance of Schiff base, starch, and α-amylase solution after incubation, A2 is the absorbance of Schiff base and starch solution after incubation, A3 is the absorbance of starch and amylase solution after incubation, and A4 is the absorbance of a starch solution after incubation. Thereafter, the IC50 value was determined from the plot of % inhibition versus concentration.

[2] = DPPH radical scavenging activity; conditions: absorbance at 517 nm, 30 min; mean ± SD (n = 3)
Experimental: as §5
The scavenging activity of compounds (1–12) was evaluated by adding an ethanolic solution of DPPH (300 μL, 0.05 mM) and incubated for 30 min in the dark. After that, changes in the absorbance of the mixture were measured at 517 nm on a UV-Vis spectrophotometer. The percentage radical scavenging activities (%RSA) and half maximal inhibitory concentration (IC50) of the compounds were estimated from Equation (2) and by linear regression analysis, respectively. All studies were carried out in triplicate. (2) % RSA= 100⌊(Abs. of DPPH − Abs. of test compound)/(Abs. of DPPH)⌋

Aspergillus niger = assay: Broth microdilution antimicrobial assay, A. niger; format: cell-based; conditions: read-out: MFC A. niger
Experimental: as §1, §2, §3, §4

Staphylococcus aureus = assay: Broth microdilution antimicrobial assay, S. aureus; format: cell-based; conditions: Staphylococcus aureus, read-out: MBC S. aureus
Experimental: as §1, §2, §3, §4

Candida albicans = assay: Broth microdilution antimicrobial assay, C. albicans; format: cell-based; conditions: read-out: MFC C. albicans
Experimental: as §1, §2, §3, §4

Salmonella typhi = assay: Broth microdilution antimicrobial assay, S. typhi; format: cell-based; conditions: for MBC: Salmonella enterica, TYPHI, read-out: MBC S. typhi
Experimental: as §1, §2, §3, §4

α-glucosidase = assay: α-Glucosidase inhibitory activity; format: biochemical; conditions: Means ×10^2 ± SD from at least three experiments
Experimental: The inhibitory activity of Schiff bases (1-9) against α-glucosidase was assessed by the method previously described by […] et al. […] Then, approximately 0.2 mL of Schiff base solution was mixed with 1.0 mL of 50 mM sodium phosphate buffer (pH 6.9) and 50 μL of α-glucosidase solution (2 U/mL). Thereafter, incubated at 37 °C for 10 min, followed by the addition of exactly 50 μL of 0.7 mM p-nitrophenyl-α-D-glucopyranoside solution in 50 mM sodium phosphate buffer (pH 6.9) and further incubated for 30 min at 37 °C. The reaction was terminated by the addition of 2.0 mL solution of 0.5 M Na2CO3. 0.3 mL aliquot of the above mixture was mixed with 4.7 mL of distilled water and the absorbance measured at 405 nm. […] (6) α - glucosidase inhibition (%) = (Ae - ASB/Ae)100 where Ae is the absorbance of the enzyme solution after incubation and ASB is the absorbance after incubation of Schiff bases solution. The assay was performed in triplicate.

Escherichia coli = assay: Broth microdilution antimicrobial assay, E. coli; format: cell-based; conditions: Escherichia coli, read-out: MBC E. coli
Experimental: as §1, §2, §3, §4

SMILES	MBC (Enterococcus faecalis) [µM]	IC50 (H2O2-scavenging activity) [µM]	IC50 [1] [µM]	IC50 (α-amylase) [µM]	IC50 [2] [µM]	MFC (Aspergillus niger) [µM]	MBC (Staphylococcus aureus) [µM]	MFC (Candida albicans) [µM]	MBC (Salmonella typhi) [µM]	IC50 (α-glucosidase) [µM]	MBC (Escherichia coli) [µM]	melting point [°C]	MBC (Enterococcus faecalis; 24 h) [µM]	MFC (Aspergillus niger; 24 h) [µM]	MBC (Staphylococcus aureus; 24 h, * = no bactericidal effect at the evaluated concentration, n = 3) [µM]	MFC (Candida albicans; 24 h) [µM]	MBC (Salmonella typhi; 24 h) [µM]	MBC (Enterococcus faecalis; * = no bactericidal effect at the evaluated concentration, n = 3) [µM]	MBC (Escherichia coli; n = 3) [µM]	antibacterial activity (growth inhibition), S. typhi (Salmonella typhi)
Oc1cc(N=Cc2ccccc2O)n[nH]1 [Compound 2, 3-(((2-hydroxyphenyl)methylidene)amino)-1H-pyrazol-5-ol]	> 4.31	410 ± 6	510 ± 5	91 ± 9	390 ± 5	> 4.31	4.31 (≈ 0.876 µg/mL)	> 4.31	> 4.31	120 ± 51	4.31 (≈ 0.876 µg/mL)	370	–	–	–	–	–	–	–	–
O=[N+]([O-])c1ccc(C=Nc2ccc(O)cc2)cc1 [Compound 4, 4-(((4-nitrophenyl)methylidene)amino)phenol]	–	370 ± 7	370 ± 6	1380 ± 17	290 ± 6	–	–	–	–	1390 ± 91	2.07 (≈ 0.501 µg/mL)	202	> 4.31	> 4.31	4.31 (≈ 1.04 µg/mL)	> 4.31	> 4.31	–	–	–
Oc1ccc(N=Cc2ccccc2O)cc1 [Compound 5, 4-(2-hydroxybenzylideneamino)phenol]	–	320 ± 6	110 ± 5	–	260 ± 5	> 4.69	> 4.69	> 4.69	> 4.69	1380 ± 1250	–	–	–	–	–	–	–	4.69 (≈ 1 µg/mL)	4.69 (≈ 1 µg/mL)	–
Oc1ccc(N=Cc2ccccc2)cc1 [Compound 6, 4-(benzylideneamino)phenol]	> 5.07	380 ± 5	260 ± 6	1410 ± 17	380 ± 2	> 5.07	> 5.07	> 5.07	> 5.07	1420 ± 1730	–	302	–	–	–	–	–	–	2.54 (≈ 0.501 µg/mL)	–
O=S(=O)(O)c1cc(O)c(N=Cc2ccccc2O)c2ccccc12 [Compound 8, 4-(2-hydroxybenzylideneamino)-3-hydroxynaphthalene-1-sulphonic acid]	> 2.92	240 ± 17	140 ± 5	420 ± 34	210 ± 5	1.46 (≈ 0.501 µg/mL)	> 2.92	1.46 (≈ 0.501 µg/mL)	> 2.92	500 ± 82	1.46 (≈ 0.501 µg/mL)	296	–	–	–	–	–	–	–	inhibited only the growth of S. typhi
O=C(O)c1cc(O)c(O)c(O)c1 [Compound 10, 3,4,5-trihydroxybenzoic acid, reference compound]	–	460 ± 11	580 ± 7	–	420 ± 3	–	–	–	–	–	–	–	–	–	–	–	–	–	–	–
O=C1OC(C(O)CO)C(O)=C1O (centres unmarked) [Compound 11, 5-(1,2-dihydroxyethyl)-3,4-dihydroxyfuran-2(5H)-one, reference compound]	–	440 ± 7	530 ± 6	–	350 ± 5	–	–	–	–	–	–	–	–	–	–	–	–	–	–	–
O=c1c(O)c(-c2ccc(O)c(O)c2)oc2cc(O)cc(O)c12 [Compound 12, 2-(3,4-dihydroxyphenyl)-3,5,7-trihydroxy-4H-chromen-4-one, reference compound]	–	270 ± 10	270 ± 8	–	240 ± 3	–	–	–	–	–	–	–	–	–	–	–	–	–	–	–
